Data from US5424456A, “N-arylalkylderivatives of 2-aminomethyl-2,3-dihydro-1,4-benzodioxine and the process of preparation thereof” (Vyzkumny Ustav Pro Farmacii A Biochemii s.p., priority 1991, dated 1995).
Where two headings read alike, the source gives them in different places.

Legend:
α-adrenergic [1] = assay: α-adrenergic blocking activity, postdecapitation muscular contractions in rats; assay type: in vivo, rat; conditions: i.v., 4.6 mg/kg, 30 minutes prior to decapitation
Experimental: b) The α-adrenergic blocking activity of compounds VUFB 17951 and VUFB 17959 was also shown in the test of influencing the postdecapitation muscular contractions in rats. The test compounds were administered intravenously in the dose of 4.6 mg/kg for VUFB 17951 and […] for VUFB 17959.

[2] = system: urinary bladder sphincter; assay: Effect on the opening pressure of the urinary bladder sphincter; assay type: in vivo, rat; conditions: rats, compared with prazosin or terazosin
blood pressure = assay: Hypotensive activity, pentobarbital anaesthesized rabbits; assay type: in vivo, rabbit
From the text: a) The blood pressure of pentobarbital anaesthesized rabbits was registered invasively in arteria femoralis. The average decrease in systolic (SBP) and diastolic (DBP) blood pressure expressed in per cents of the starting blood pressure level after intravenous and oral administration is shown in Tables 3 and 4.

calcium channel = target: T1, calcium channel (Rattus norvegicus, UniProt P22002); assay: Calcium channel blocking activity, K+ depolarization-induced contraction of helically cut rat aortic strip; conditions: Krebs-Henselheit solution, 37° C., cumulative doses, read-out: IC50 (50% decrease of contraction of the aortic strip)
T1 construct: helically cut rat aortic strip; from tissue; host or cells: rat aorta (helically cut strip)
Experimental: The calcium channel blocking activity of the compounds was tested using a helically cut rat aortic strip in Krebs-Henselheit solution at 37° C., bubbled with a mixture of 95% O2 and 5% CO2. The isometrically registered contractions were induced by K^(+). depolarization. The test compounds were applied in a cumulative doses and the vasodilating activity thereof was expressed in calculated concentration of the test compound, causing 50% decrease of contraction of the aortic strip (IC50).

α-adrenergic [3] = target: T2, α-adrenergic (Rattus norvegicus, UniProt P23944); assay: α-adrenergic blocking activity, norepinephrine-induced contraction of helically cut rat aortic strip; conditions: 37° C., cumulative doses, read-out: IC50 (concentration causing 50% relaxation)
T2 construct: helically cut rat aortic strip; from tissue; host or cells: rat aorta (helically cut strip)
T2 sequence (P23944 1-561): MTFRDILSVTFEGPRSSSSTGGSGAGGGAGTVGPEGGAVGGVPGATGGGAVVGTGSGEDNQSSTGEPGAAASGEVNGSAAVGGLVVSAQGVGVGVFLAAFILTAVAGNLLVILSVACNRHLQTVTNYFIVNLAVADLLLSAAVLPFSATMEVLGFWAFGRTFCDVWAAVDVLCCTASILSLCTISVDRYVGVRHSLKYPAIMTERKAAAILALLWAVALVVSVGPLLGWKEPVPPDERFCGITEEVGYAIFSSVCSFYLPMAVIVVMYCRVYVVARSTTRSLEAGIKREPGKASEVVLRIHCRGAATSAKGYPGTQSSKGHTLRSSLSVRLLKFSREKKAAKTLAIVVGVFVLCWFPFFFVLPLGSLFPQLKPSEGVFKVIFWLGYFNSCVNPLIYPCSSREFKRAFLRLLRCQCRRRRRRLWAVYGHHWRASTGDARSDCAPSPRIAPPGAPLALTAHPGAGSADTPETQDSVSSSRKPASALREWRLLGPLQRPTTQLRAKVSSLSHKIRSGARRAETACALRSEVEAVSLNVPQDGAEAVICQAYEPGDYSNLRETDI
Experimental: a) The α-adrenergic blocking activity of the compounds was tested using a helically cut rat aortic strip in a Krebs-Henselheit solution at 37° C., bubbled with a mixture of 95% O2 and 5% CO2. Norepinephrine induced contractions were detected isometrically. The compounds were added in cumulative doses and the relaxing activity was expressed in per cents of the maximum norepinephrine contraction.

[4] = system: rat peripheral venous thrombosis; assay: Antithrombotic activity, rat peripheral venous thrombosis in closed abdominal part of vena cava; assay type: in vivo; conditions: rats, read-out: statistically significant effective dose (mass of thrombi)
Experimental: The antithrombotic activity of the test compounds was established using the model of rat peripheral venous thrombosis in a closed abdominal part of vena cava. The thrombus was induced by intravenous administration of hypotonic solution of sodium chloride. The thrombus was freed 10 minutes after induction and weighted. The mass of thrombi in control animals was compared to the mass of thrombi of animals administered by the test compound. The statistically significant effective dose for compound VUFB 17951 was 0.5 mg/kg intravenously and 5 mg/kg orally and for the compound VUFB 17959 0.25 mg/kg and 1.0 mg/kg, respectively. The corresponding dose of a standard (Cilostazol, generic name, Merck index, 11th Edition, 2277) was 25 mg/kg orally.

intraocular pressure = assay: Effect on the intraocular pressure; assay type: in vivo, rabbit; conditions: rabbits, topical intraocular administration
[5] = p.o., 5.0 mg/kg, value 1 of 5 (heads 30/60/120/180 min)
[6] = p.o., 5.0 mg/kg, value 2 of 5 (heads 30/60/120/180 min)
[7] = p.o., 5.0 mg/kg, value 3 of 5 (heads 30/60/120/180 min)
[8] = p.o., 5.0 mg/kg, value 4 of 5 (heads 30/60/120/180 min)
[9] = p.o., 5.0 mg/kg, value 5 of 5 (heads 30/60/120/180 min)
[10] = p.o., 10.0 mg/kg, value 1 of 5 (heads 30/60/120/180 min)
[11] = p.o., 10.0 mg/kg, value 2 of 5 (heads 30/60/120/180 min)
[12] = p.o., 10.0 mg/kg, value 3 of 5 (heads 30/60/120/180 min)
[13] = p.o., 10.0 mg/kg, value 4 of 5 (heads 30/60/120/180 min)
[14] = p.o., 10.0 mg/kg, value 5 of 5 (heads 30/60/120/180 min)

T1 sequence (P22002 whole entry): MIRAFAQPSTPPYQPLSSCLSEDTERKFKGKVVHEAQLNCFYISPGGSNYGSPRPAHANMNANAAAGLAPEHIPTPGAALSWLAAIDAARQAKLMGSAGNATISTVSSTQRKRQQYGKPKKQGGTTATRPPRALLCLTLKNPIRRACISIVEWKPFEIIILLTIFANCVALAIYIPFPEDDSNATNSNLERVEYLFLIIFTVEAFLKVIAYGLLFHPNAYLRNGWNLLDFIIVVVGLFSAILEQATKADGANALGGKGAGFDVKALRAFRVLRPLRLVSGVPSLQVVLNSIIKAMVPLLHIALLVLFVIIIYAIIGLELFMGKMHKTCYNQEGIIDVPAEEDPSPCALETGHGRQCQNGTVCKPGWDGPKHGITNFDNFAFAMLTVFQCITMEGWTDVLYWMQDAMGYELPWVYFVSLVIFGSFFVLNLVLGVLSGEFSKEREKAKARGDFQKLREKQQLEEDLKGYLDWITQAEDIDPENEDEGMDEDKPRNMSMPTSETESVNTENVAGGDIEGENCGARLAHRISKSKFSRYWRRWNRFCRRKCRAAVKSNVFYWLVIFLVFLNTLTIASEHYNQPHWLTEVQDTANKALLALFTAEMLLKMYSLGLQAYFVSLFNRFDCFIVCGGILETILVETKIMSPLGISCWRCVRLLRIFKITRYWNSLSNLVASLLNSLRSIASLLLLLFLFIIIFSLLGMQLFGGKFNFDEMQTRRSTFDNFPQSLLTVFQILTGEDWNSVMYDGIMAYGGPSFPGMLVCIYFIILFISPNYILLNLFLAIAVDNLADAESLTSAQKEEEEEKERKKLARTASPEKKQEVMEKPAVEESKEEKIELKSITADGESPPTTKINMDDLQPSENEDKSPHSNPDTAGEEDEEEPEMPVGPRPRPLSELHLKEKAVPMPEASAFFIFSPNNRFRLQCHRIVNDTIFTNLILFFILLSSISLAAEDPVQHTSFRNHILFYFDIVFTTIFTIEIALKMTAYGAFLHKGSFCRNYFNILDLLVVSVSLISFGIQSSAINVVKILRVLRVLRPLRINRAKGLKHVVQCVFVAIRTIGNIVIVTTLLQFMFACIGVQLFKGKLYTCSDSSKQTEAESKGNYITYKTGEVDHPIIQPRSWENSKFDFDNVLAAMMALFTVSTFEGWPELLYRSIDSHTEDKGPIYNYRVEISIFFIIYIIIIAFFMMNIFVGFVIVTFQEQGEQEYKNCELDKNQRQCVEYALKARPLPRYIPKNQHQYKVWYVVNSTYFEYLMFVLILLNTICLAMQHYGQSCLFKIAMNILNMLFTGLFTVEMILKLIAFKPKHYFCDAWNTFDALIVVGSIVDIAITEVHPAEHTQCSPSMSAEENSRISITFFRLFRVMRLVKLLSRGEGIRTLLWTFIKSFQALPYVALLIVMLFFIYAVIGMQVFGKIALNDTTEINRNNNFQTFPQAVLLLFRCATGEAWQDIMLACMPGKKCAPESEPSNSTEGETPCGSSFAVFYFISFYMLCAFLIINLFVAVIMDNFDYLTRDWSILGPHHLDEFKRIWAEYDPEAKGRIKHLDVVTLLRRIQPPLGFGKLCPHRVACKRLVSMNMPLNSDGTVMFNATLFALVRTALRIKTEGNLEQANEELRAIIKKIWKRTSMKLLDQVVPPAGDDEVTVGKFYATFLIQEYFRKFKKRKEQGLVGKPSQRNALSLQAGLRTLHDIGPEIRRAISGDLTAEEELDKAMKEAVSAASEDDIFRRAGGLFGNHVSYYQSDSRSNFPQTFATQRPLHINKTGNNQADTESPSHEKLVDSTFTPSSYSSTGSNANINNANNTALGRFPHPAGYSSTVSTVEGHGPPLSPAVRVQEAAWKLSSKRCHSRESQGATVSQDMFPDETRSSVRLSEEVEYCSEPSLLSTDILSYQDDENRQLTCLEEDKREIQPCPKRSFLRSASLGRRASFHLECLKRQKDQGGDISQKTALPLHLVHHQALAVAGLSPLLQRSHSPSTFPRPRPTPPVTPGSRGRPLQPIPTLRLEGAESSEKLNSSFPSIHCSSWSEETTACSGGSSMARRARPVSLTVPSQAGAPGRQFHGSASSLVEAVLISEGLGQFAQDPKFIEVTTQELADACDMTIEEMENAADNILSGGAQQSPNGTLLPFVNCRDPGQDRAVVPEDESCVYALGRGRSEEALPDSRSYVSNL
T1 sequence (P54290 25-1091 partner): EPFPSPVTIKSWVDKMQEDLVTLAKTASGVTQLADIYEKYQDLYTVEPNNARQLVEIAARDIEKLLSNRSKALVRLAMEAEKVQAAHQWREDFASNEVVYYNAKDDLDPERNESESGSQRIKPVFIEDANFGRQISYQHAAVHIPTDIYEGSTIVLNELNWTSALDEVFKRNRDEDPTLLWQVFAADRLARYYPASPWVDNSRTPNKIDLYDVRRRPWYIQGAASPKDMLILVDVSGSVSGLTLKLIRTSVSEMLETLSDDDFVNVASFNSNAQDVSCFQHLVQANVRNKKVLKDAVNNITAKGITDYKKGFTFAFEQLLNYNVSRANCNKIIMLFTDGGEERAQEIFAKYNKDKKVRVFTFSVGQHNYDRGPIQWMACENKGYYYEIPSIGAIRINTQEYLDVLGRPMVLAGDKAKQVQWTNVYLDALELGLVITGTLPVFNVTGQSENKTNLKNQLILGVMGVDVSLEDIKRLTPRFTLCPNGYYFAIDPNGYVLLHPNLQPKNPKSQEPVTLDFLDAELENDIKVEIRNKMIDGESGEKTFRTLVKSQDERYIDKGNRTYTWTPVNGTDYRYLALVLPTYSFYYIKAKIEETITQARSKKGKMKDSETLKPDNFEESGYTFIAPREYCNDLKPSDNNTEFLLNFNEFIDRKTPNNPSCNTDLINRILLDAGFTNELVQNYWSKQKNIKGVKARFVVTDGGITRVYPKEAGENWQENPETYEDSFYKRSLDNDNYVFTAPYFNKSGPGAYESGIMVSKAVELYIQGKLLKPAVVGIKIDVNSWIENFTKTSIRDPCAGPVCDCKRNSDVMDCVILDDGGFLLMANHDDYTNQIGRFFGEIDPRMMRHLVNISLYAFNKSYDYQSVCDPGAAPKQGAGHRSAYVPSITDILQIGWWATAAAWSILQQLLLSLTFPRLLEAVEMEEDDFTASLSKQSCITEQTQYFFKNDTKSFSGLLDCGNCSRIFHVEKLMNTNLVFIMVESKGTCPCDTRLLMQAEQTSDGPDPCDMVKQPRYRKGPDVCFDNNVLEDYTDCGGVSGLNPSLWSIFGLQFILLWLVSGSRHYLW

IC50 (calcium channel): 18 µM | IC50 (α-adrenergic [3]): 6 µM
Structure (SMILES): COc1ccc(C(C#N)(CCCNCC2COc3ccccc3O2)C(C)C)cc1OC (racemic) [VUFB 17951, 5-(2,3-Dihydro-1,4-benzodioxin-2-ylmethylamino)-2-(3,4-dimethoxyphenyl)-2-isopropyl valeronitrile]
decrease in number of postdecapitation contractions (α-adrenergic [1]): highly significant decrease in number of postdecapitation contractions | duration of action on opening pressure of the urinary bladder sphincter [2]: longer duration of action | lowering of the opening pressure of the urinary bladder sphincter ([2]; corresponding doses): lowered the opening pressure of the urinary bladder sphincter of rats in corresponding doses in the same extent as prazosin | decrease in diastolic blood pressure (DBP) (blood pressure; i.v., 0.2 mg/kg, 1 min): -36 per cents | decrease in systolic blood pressure (SBP) (blood pressure; i.v., 0.2 mg/kg, 1 min): -28 per cents | decrease in diastolic blood pressure (DBP) (blood pressure; i.v., 0.2 mg/kg, 5 min): -23 per cents | decrease in systolic blood pressure (SBP) (blood pressure; i.v., 0.2 mg/kg, 5 min): -24 per cents | decrease in diastolic blood pressure (DBP) (blood pressure; i.v., 0.2 mg/kg, 30 min): -24 per cents | decrease in systolic blood pressure (SBP) (blood pressure; i.v., 0.2 mg/kg, 30 min): -25 per cents | decrease in diastolic blood pressure (DBP) (blood pressure; i.v., 0.2 mg/kg, 60 min): -16 per cents | decrease in systolic blood pressure (SBP) (blood pressure; i.v., 0.2 mg/kg, 60 min): -18 per cents | decrease in diastolic blood pressure (DBP) (blood pressure; i.v., 0.2 mg/kg, 180 min): -17 per cents | decrease in systolic blood pressure (SBP) (blood pressure; i.v., 0.2 mg/kg, 180 min): -13 per cents | decrease in diastolic blood pressure (DBP) (blood pressure; i.v., 1.0 mg/kg, 1 min): -56 per cents | decrease in systolic blood pressure (SBP) (blood pressure; i.v., 1.0 mg/kg, 1 min): -47 per cents | decrease in diastolic blood pressure (DBP) (blood pressure; i.v., 1.0 mg/kg, 5 min): -36 per cents | decrease in systolic blood pressure (SBP) (blood pressure; i.v., 1.0 mg/kg, 5 min): -39 per cents | decrease in diastolic blood pressure (DBP) (blood pressure; i.v., 1.0 mg/kg, 30 min): -30 per cents | decrease in systolic blood pressure (SBP) (blood pressure; i.v., 1.0 mg/kg, 30 min): -35 per cents | decrease in diastolic blood pressure (DBP) (blood pressure; i.v., 1.0 mg/kg, 60 min): -33 per cents | decrease in systolic blood pressure (SBP) (blood pressure; i.v., 1.0 mg/kg, 60 min): -35 per cents | decrease in diastolic blood pressure (DBP) (blood pressure; i.v., 1.0 mg/kg, 180 min): -24 per cents | decrease in systolic blood pressure (SBP) (blood pressure; i.v., 1.0 mg/kg, 180 min): -17 per cents | decrease in diastolic blood pressure (DBP) (blood pressure; [5]): -6 per cents | decrease in systolic blood pressure (SBP) (blood pressure; [5]): -6 per cents | decrease in diastolic blood pressure (DBP) (blood pressure; [6]): -12 per cents | decrease in systolic blood pressure (SBP) (blood pressure; [6]): -14 per cents | decrease in diastolic blood pressure (DBP) (blood pressure; [7]): -18 per cents | decrease in systolic blood pressure (SBP) (blood pressure; [7]): -17 per cents | decrease in diastolic blood pressure (DBP) (blood pressure; [8]): -18 per cents | decrease in systolic blood pressure (SBP) (blood pressure; [8]): -13 per cents | decrease in diastolic blood pressure (DBP) (blood pressure; [9]): -18 per cents | decrease in systolic blood pressure (SBP) (blood pressure; [9]): -15 per cents | decrease in diastolic blood pressure (DBP) (blood pressure; [10]): -6 per cents | decrease in systolic blood pressure (SBP) (blood pressure; [10]): -5 per cents | decrease in diastolic blood pressure (DBP) (blood pressure; [11]): -11 per cents | decrease in systolic blood pressure (SBP) (blood pressure; [11]): -9 per cents | decrease in diastolic blood pressure (DBP) (blood pressure; [12]): -18 per cents | decrease in systolic blood pressure (SBP) (blood pressure; [12]): -12 per cents | decrease in diastolic blood pressure (DBP) (blood pressure; [13]): -20 per cents | decrease in systolic blood pressure (SBP) (blood pressure; [13]): -13 per cents | decrease in diastolic blood pressure (DBP) (blood pressure; [14]): -17 per cents | decrease in systolic blood pressure (SBP) (blood pressure; [14]): -12 per cents | minimal effective dose ([4]; iv, intravenously): 0.5 mg/kg | minimal effective dose ([4]; po, orally): 5 mg/kg | lowering of the intraocular pressure (intraocular pressure): lowered significantly the intraocular pressure
